These results are taken from patent US5519021A, “Benzoxazinones as inhibitors of HIV reverse transcriptase” (priority 1995, dated 1996).

One may read the fraction unbound as free concentration divided by total concentration. A high value points to much free substance. By IC50 is commonly meant the concentration that inhibits the measured activity by half.

Data set [1] concerns HIV-1 (wild-type). Description: Cell spread assay (MT-4 T-lymphoid cells). In kind it is cell-based. Particulars: Human immunodeficiency virus 1, MT4, 72 h; WT virus, MT-4 cells, N = 2; read-out: CIC95 (μM) WT. The procedure: (§1) Inhibition of the spread of HIV in cell culture was measured according to Nunberg, J. H. et al., J. Virol. 65, 4887 (1991 ). In this assay, MT-4 T-lymphoid cells were infected with HIV-1 (wild-type, unless otherwise indicated) by using a predetermined inoculum, and cultures were incubated for 24 h. At this time, ≤1% of the cells were positive by indirect immunofluorescence. Cells were then extensively washed and distributed into 96-well culture dishes. Serial twofold dilutions of inhibitor were added to the wells, and cultures were continued for 3 additional days. At 4 days postinfection, 100% of the cells in control cultures were infected. HIV-1 p24 accumulation was directly correlated with virus spread. The cell culture inhibitory concentration was defined as the inhibitor concentration in nanomoles/liter which reduced the spread of infection by at least 95%, or CIC95.

The subject of data set [2] is HIV-1 DM (double mutant). As to the kind of experiment: Cell spread assay, double mutant (DM). The data set is classed as cell-based. Particulars: MT-4 cells. The procedure:
as §1
(§2) *Mutants K103N and Y181C are drugresistant HIV1 reverse transcriptases. D
is the double mutant, as discussed in the reverse transcriptase assay. RT

The subject of data set [3] is HIV-1 Y181C. As to the kind of experiment: Cell spread assay, Y181C mutant. In kind it is cell-based. Particulars: MT-4 cells. The procedure:
as §1, §2

A short description of data set [4]: Protein binding (HPLC method). In kind it is in vitro ADME. Particulars: Normal Human Plasma (HPLC Method). From the text: Protein Binding: 98.0% Normal Human Plasma (HPLC Method)
Data set [5] has as its target T1, reverse transcriptase of HIV2 (Human immunodeficiency virus type 2 subtype A, UniProt P04584).
T1 construct: is the reverse transcriptase of HIV2
Description: Reverse transcriptase assay, RT-2. In kind it is biochemical. The procedure:
The assay measures the incorporation of tritiated deoxyguanosine monophosphate by recombinant HIV reverse transcriptase (HIV RTR) (or other RT) into acid-precipitable cDNA at the Km values of dGTP and poly r(C).cndot.oligo d(G)12-18.
The assays were carried out in 55 mM Tris (pH 8.2)-30 mM KCl-30 mM MgCl2 -1 mM dithiothreitol-20 μg of rC:dG 12-18 (Pharmacia) per ml-8 mM [^3 H]dGTP (New England Nuclear)-0.01% Triton X-100-50 mM ethylene glycol-bis(β-amino-ethyl ether)-N,N,N',N'-tetraacetic acid (EGTA)-1 mg of bovine serum albumin per ml. After 60 min of incubation at 37° C., acid-precipitable material was collected onto glass fiber filters by using a semiautomatic cell harvester. Bacterial cell extracts containing RT were diluted to within the linear range of the assay, and activity was determined in the presence and absence of inhibitor. Purified HIV-1 RT heterodimer produced in E. coli also served as a control. Results are determined as inhibitor concentration to give 50% inhibition (IC50 wt), in nanomoles/liter.
is the reverse transcriptase of HIV2.

The test system of data set [6] is HIV-1 K103N. As to the kind of experiment: Cell spread assay, K103N mutant. The data set is classed as cell-based. The following applies: MT-4 cells. The procedure:
as §1, §2

The structures appear in SMILES notation. Bounds are passed on as bounds.

T1 sequence (P04584 613-1171): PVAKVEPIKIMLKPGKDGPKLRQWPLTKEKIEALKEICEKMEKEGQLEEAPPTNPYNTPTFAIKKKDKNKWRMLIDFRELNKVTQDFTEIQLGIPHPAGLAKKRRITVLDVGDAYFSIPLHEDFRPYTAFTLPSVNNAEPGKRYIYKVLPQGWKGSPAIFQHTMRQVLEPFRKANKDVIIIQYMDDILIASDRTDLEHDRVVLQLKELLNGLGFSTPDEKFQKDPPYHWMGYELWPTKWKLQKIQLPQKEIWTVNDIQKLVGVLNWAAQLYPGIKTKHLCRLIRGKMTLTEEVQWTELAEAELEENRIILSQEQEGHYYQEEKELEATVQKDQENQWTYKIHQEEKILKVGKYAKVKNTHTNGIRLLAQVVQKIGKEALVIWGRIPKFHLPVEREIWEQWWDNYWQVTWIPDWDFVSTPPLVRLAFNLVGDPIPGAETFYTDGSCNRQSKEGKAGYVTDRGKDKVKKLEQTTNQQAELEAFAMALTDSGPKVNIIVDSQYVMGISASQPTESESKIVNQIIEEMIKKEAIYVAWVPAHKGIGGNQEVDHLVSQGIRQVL
T1 sequence (P04584 613-1051): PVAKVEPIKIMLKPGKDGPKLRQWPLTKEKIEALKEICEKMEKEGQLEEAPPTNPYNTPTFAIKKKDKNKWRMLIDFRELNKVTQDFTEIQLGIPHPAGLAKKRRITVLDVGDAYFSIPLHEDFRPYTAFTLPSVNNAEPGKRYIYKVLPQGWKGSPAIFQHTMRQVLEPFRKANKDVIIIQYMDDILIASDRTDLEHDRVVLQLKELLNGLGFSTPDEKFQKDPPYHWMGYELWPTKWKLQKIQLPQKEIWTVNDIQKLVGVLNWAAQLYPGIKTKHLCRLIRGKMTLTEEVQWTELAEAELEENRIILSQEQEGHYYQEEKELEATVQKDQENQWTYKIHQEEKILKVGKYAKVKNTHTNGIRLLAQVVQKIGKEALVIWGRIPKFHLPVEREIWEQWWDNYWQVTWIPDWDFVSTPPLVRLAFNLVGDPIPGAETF

Take `O=C1Nc2ccc(Cl)cc2[C@@](C#CC2CC2)(C(F)(F)F)O1` [37.2(-), (-) 6-Chloro-4-cyclopropylethynyl-4-trifluoromethyl-1,4-dihydro-2H-3,1-benzoxazin-2-one]: the IC95 in data set [1] was below 0.006 µM. Further, in data set [2], the “CIC95 (μM) DM” value is 0.400 µM. For the same molecule, in data set [3], the “CIC95 (μM) Y181C” value is below 0.025 µM. Moreover, the fraction unbound in data set [4] is 0.02. Besides, in data set [5], the IC50 turned out to be 80.8 µM. For the same molecule, the “CIC95 (μM) K103N” value in data set [6] was determined as 0.100 µM.
